In test [1] the test system is NF-kB activity upon TLR2 stimulation with PAM3CSK4 in THP1-Blue NF-kB SEAP reporter cells. The test is described as follows: THP1-Blue NF-kB SEAP reporter assay, TLR2 stimulation with PAM3CSK4. Type of test: cell-based, human. As to conditions: for Suppression of NF-kB signaling through TLR2: result in words; for LOG (PAM): log of PAM IC50.
Test [2] relates to NF-kB activity upon IL-1β stimulation (IL-1R) in THP1 NF-kB reporter cells. As to the kind of experiment: THP1 NF-kB reporter assay, IL-1β stimulation. The format is cell-based, human. As to conditions: for Suppression of NF-kB signaling through the IL-1 receptor: result in words; for LOG (IL1B): log of IL1B IC50. In general terms: Reporter assays use an easily measured gene product as a stand-in for the process of interest.

Test [3] deals with MDS/AML cell lines and patient-derived samples. The test is described as follows: Clonogenic assay (colony formation in methylcellulose). Type of test: cell-based, human. As to conditions: IRAK4KO versus IRAK1KO, MyD88KO or WT THP1 cells; 500 nM.
The target of test [4] is T1, IRAK1 (Homo sapiens, UniProt P51617).
T1 construct: purchased Reaction Biology (contract assay service)
T1 sequence (P51617 whole entry): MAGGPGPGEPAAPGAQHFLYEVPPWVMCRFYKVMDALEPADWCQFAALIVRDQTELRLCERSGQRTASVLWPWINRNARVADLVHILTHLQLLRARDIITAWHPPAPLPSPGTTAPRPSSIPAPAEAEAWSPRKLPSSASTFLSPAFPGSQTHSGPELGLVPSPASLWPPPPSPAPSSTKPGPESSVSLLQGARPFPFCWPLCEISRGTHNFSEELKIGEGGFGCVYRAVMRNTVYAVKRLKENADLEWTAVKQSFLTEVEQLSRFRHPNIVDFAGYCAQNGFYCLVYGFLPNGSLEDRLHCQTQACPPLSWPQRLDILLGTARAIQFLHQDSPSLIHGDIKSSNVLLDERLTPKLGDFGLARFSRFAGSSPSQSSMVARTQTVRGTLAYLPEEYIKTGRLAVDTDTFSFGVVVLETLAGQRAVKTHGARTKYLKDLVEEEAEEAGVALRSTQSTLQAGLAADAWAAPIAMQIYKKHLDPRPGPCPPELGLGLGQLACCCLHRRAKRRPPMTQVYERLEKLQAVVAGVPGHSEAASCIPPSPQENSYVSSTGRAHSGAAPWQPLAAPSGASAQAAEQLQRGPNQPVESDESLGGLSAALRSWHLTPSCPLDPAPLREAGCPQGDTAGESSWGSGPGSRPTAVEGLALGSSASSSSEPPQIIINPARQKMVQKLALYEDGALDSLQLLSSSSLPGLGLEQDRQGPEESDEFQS
The test is described as follows: Reaction Biology Kinase Assay service, kinase inhibition (IC50). Type of test: biochemical. As to conditions: Table 1; for LOG (IRAK1): log of IRAK1 IC50; for IC50: unit nM, read-out: Reaction Bio IRAK1 IC50.

The target in test [5] is T2, IRAK4 (Homo sapiens, UniProt Q9NWZ3).
T2 construct: purchased Reaction Biology (contract assay service)
T2 sequence (Q9NWZ3 1-460): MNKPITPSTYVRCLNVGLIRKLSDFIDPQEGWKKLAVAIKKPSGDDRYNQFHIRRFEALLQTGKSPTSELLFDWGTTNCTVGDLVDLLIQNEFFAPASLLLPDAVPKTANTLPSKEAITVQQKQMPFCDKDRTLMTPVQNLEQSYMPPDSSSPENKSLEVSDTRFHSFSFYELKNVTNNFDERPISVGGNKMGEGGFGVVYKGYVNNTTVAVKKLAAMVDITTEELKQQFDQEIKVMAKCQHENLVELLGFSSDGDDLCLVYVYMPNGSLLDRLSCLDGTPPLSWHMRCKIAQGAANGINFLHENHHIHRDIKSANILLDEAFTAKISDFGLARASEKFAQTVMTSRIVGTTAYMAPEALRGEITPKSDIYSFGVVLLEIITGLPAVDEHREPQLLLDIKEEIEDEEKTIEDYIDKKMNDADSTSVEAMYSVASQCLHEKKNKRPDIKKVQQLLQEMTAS
The test is described as above. The format is biochemical. As to conditions: Table 1; for LOG (IRAK4): log of IRAK4 IC50; for IC50: unit nM, read-out: Reaction Bio IRAK4 IC50.

The mark [6] stands for this setting: Homo sapiens, THP-1, Table 1, unit nM, read-out: THP-1 NFkB PAM IC50.
[7] abbreviates: Homo sapiens, THP-1, Table 1, unit nM, read-out: THP-1 NFkB IL1B IC50.

Where two headings read alike, the source gives them in different places.

`CC(C)(O)c1cc2nn(CCS(C)(=O)=O)cc2cc1NC(=O)c1cccc(C(F)(F)F)n1` [BAY1834845]: the IC50 (as a rule, the concentration needed to halve the response being measured) in test [1] (THP1 NF-kB reporter cells, read-out: IC50 vs. Pam3CSK4 (TLR2-mediated NF-kB activation)) was 150 nM; in test [2] (THP1 NF-kB reporter cells, read-out: IC50 vs. IL-1β (NF-kB activation)), 81 nM; in test [2] (Table 1, unit nM, read-out: THP-1 NFkB IL1B IC50) it was 81.2 nM. Moreover, the “Suppression of NF-kB signaling through TLR2” value in test [1] (THP1 NF-kB reporter cells) is on record as “fully suppress”. In addition, the “LOG (PAM)” value in test [1] (Table 1) was determined as 2.18. For the same compound, in test [2] (THP1 NF-kB reporter cells, IL-1β), the “Span (extent of suppression of signaling through the IL-1R)” value was determined as 59%. The “Suppression of NF-kB signaling through the IL-1 receptor” value in test [2] (THP1 NF-kB reporter cells) is “do not fully suppress”. Besides, the “LOG (IL1B)” value in test [2] (Table 1) stood at 1.91.

With `CC(=O)c1cc2c(o1)C(=O)c1ccccc1C2=O` [BB1608], in test [3], the “Colony formation of knockout THP1 cells with STAT inhibitor” value is given as “sensitive”.

As for `Cc1cc(-c2nc(C(=O)Nc3cc4oc(N5CCOCC5)nc4nc3N3CC[C@@H](O)C3)co2)ccn1` [CA-4948 (Emavusertib), Emavusertib], the figures for the IC50 in test [1] (setting [6]) and in test [2] (setting [7]) were 307 nM and 580 nM, respectively. Further, the “LOG (PAM)” value in test [1] (Table 1) was determined as 2.49. In addition, the “LOG (IL1B)” value in test [2] (Table 1) is on record as 2.76.

As to `COc1cc2ncc(-c3cncc(N[C@H]4CNCC[C@@H]4F)n3)n2nc1C1CC1` [Compound 1], the concentration for half-maximal inhibition (IC50) stood at 242 nM in test [1] (setting [6]), 52.8 nM in test [4], 209 nM in test [2] (setting [7]) and 1.35 nM in test [5]. Moreover, the “LOG (PAM)” value in test [1] (Table 1) stood at 2.38. In addition, the “LOG (IRAK1)” value in test [4] came out at 1.72. Moreover, the “LOG (IL1B)” value in test [2] (Table 1) was determined as 2.32. Besides, the “LOG (IRAK4)” value in test [5] was 0.13.

As for `COc1cc2ncc(-c3ccnc(N[C@H]4CNCC[C@@H]4F)n3)n2nc1C1CC1` [Compound 2], the IC50 worked out at 79.2 nM in test [1] (setting [6]), 21.3 nM in test [4], 63.5 nM in test [2] (setting [7]) and 1.3 nM in test [5]. Also, the “LOG (PAM)” value in test [1] (Table 1) was determined as 1.90. Besides, the “LOG (IRAK1)” value in test [4] is on record as 1.33. Further, in test [2] (Table 1), the “LOG (IL1B)” value is reported as 1.80. In test [5], the “LOG (IRAK4)” value is listed as 0.11.

For `COc1cc2ncc(-c3ccnc(N[C@H]4CCCNC4)n3)n2nc1C1CC1` [Compound 3], the 50% inhibitory concentration (IC50) in test [1] (setting [6]) came to 317 nM; in test [4], 62.6 nM; in test [2] (setting [7]), 316 nM; in test [5], 4.4 nM. In addition, in test [1] (Table 1), the “LOG (PAM)” value amounted to 2.50. Further, the “LOG (IRAK1)” value in test [4] was found to be 1.80. For the same compound, the “LOG (IL1B)” value in test [2] (Table 1) came out at 2.50. The “LOG (IRAK4)” value in test [5] is 0.64.

Regarding `C[C@@](O)(c1cn2c(-c3ccnc(N[C@H]4CNCC[C@@H]4F)n3)cnc2cn1)C(F)(F)F` [Compound 4], the half-inhibitory concentration (IC50) turned out to be 17.3 nM in test [1] (setting [6]), 6.96 nM in test [4], 73.3 nM in test [2] (setting [7]) and 2.2 nM in test [5]. Also, the “LOG (PAM)” value in test [1] (Table 1) stood at 1.24. Further, in test [4], the “LOG (IRAK1)” value came to 0.84. Also, the “LOG (IL1B)” value in test [2] (Table 1) was 1.87. In addition, in test [5], the “LOG (IRAK4)” value is reported as 0.34.

For `COc1cc2ncc(-c3ccnc(N[C@H]4CNCC[C@@H]4F)n3)n2cc1C(C)(C)O` [Compound 5], the half-maximal inhibitory concentration (IC50) in test [1] (setting [6]) was found to be 10.5 nM; in test [4], 3.84 nM; in test [2] (setting [7]), 25 nM; in test [5] it was 0.609 nM. Further, the “LOG (PAM)” value in test [1] (Table 1) was 1.02. In test [4], the “LOG (IRAK1)” value is given as 0.58. Also, the “LOG (IL1B)” value in test [2] (Table 1) turned out to be 1.40. Further, the “LOG (IRAK4)” value in test [5] is −0.22.

`CN(C)c1ccc2ncc(-c3cccc(N[C@H]4CNC[C@@H]4F)n3)n2n1` [Compound 7]: the IC50 in test [1] (setting [6]) was determined as 3.3 nM; in test [4], 1.54 nM; in test [2] (setting [7]), 15.1 nM; in test [5], 0.637 nM. Besides, the “LOG (PAM)” value in test [1] (Table 1) is 0.52. Besides, the “LOG (IRAK1)” value in test [4] was determined as 0.19. Besides, the “LOG (IL1B)” value in test [2] (Table 1) stood at 1.18. Moreover, the “LOG (IRAK4)” value in test [5] is listed as −0.20.

Turning to `CC(O)(c1cn2c(-c3cccc(N[C@H]4CNCC[C@@H]4F)n3)cnc2cn1)C(F)(F)F` (stereo partly shown) [Compound 9], the IC50 in test [1] (setting [6]) turned out to be 14.2 nM; in test [4] it was 21 nM; in test [2] (setting [7]) it was 25.9 nM; in test [5], 0.5 nM. Moreover, the “LOG (PAM)” value in test [1] (Table 1) amounted to 1.15. For the same compound, the “LOG (IRAK1)” value in test [4] stood at 1.32. Besides, the “LOG (IL1B)” value in test [2] (Table 1) turned out to be 1.41. Also, the “LOG (IRAK4)” value in test [5] was −0.30.

On to `CC(C)(O)c1cn2c(-c3nc(N[C@H]4CNCC[C@@H]4F)c(F)cc3F)cnc2cn1` [Compound 10], for which the IC50 is 17.3 nM in test [1] (setting [6]), 33 nM in test [4], 87.5 nM in test [2] (setting [7]) and 1.49 nM in test [5]. In test [1] (Table 1), the “LOG (PAM)” value amounted to 1.24. Further, the “LOG (IRAK1)” value in test [4] is 1.52. Further, the “LOG (IL1B)” value in test [2] (Table 1) is recorded as 1.94. For the same compound, the “LOG (IRAK4)” value in test [5] is listed as 0.17.

Consider `COc1cc2ncc(-c3cccc(N[C@H]4CNCC[C@@H]4F)n3)n2nc1C1CC1` [Compound 11], for which the IC50 in test [1] (setting [6]) was determined as 280 nM; in test [4], 220 nM; in test [2] (setting [7]) it was 419 nM; in test [5] it was 1.67 nM. For the same compound, the “LOG (PAM)” value in test [1] (Table 1) was determined as 2.45. The “LOG (IRAK1)” value in test [4] was 2.34. The “LOG (IL1B)” value in test [2] (Table 1) came to 2.62. In addition, the “LOG (IRAK4)” value in test [5] was 0.22.

For the compound `COc1cc2ncc(-c3cccc(N[C@H]4CNCC[C@@H]4F)n3)n2cc1C(C)(C)O` [Compound 13], the IC50 in test [1] (setting [6]) worked out at 13.6 nM; in test [2] (setting [7]) it was 15.4 nM. Further, the “LOG (PAM)” value in test [1] (Table 1) came out at 1.13. The “LOG (IL1B)” value in test [2] (Table 1) is 1.19.

`C=CC(=O)Nc1cccc(C(=O)Nc2ccc(NC(=O)c3cccc(-c4ccn[nH]4)n3)cc2)c1` [JH-X-119-01]: in test [1] (THP1 NF-kB reporter cells), the “Suppression of NF-kB signaling through TLR2” value is “does not inhibit signaling through either receptor”. For the same compound, the “Suppression of NF-kB signaling through the IL-1 receptor” value in test [2] (THP1 NF-kB reporter cells) is reported as “does not inhibit signaling through either receptor”.
